This passage reports TGI and GI50 results from PubChem BioAssay (NCI).

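The compound was tested at five concentrations on cells cultured in 96-well plates, with a 48-hour exposure period. At the GI50, growth is halved. TGI denotes the concentration required for complete inhibition of growth.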

What all share (experiment): inhibition of tumour cell growth, NCI panel, 48 h
Assay [1] relates to A498 renal.
For assay [2], the system named is ACHN renal.
In assay [3] the test system is NCI-H226 lung.
Assay [4] deals with NCI-H522 lung.
The subject of assay [5] is OVCAR-3 ovarian.
In assay [6] the test system is OVCAR-4 ovarian.
Assay [7] concerns OVCAR-5 ovarian.
For assay [8], the system named is RPMI-8226 leukemia.
The test system of assay [9] is TK-10 renal.
The subject of assay [10] is HCT-15 colon.

Regarding `COc1cc2cc3c4c(cc(OC)c(OC)c4c2cc1OC)CCN3C(=O)CCCC(=O)O`, the TGI in assay [1], in assay [2], in assay [3], in assay [4], in [5] and in [6] was greater than 100 µM in each case. The TGI in assay [7], in [8] and in assay [9] was greater than 100 µM each time.
Consider `O=C1C=C2S[C@H]3C[C@]2(C=C1Br)c1c(c(O)c2c4c1=NCCC=4C=N2)N3`, for which the TGI in assay [1] turned out to be 13.3 µM; in assay [2] it was 1.76 µM; in assay [10] it was 1.99 µM; in assay [3], 4.86 µM; in [4] it was 0.716 µM; in assay [5] it was 1.12 µM. For the same compound, the values for the TGI in assay [6], in assay [7] and in assay [9] were 0.985 µM, 3.25 µM and 2.71 µM, respectively.
As for `COC(=O)C(C(=O)C(=O)Nc1cccc(O)c1)c1nc2ccc(Cl)cc2[nH]c1=O` (centres undefined), the TGI in assay [1], in [2], in assay [10], in assay [3], in assay [5] and in [6] was greater than 100 µM in each case. In addition, the TGI in assay [7], in [8] and in [9] was greater than 100 µM throughout.
Turning to `O=C(NCCCN1CCN(CCCNC(=O)c2cnc3ccccc3n2)CC1)c1cnc2ccccc2n1`, the TGI in [1], in assay [2], in assay [10], in assay [3], in [4] and in [5] was greater than 100 µM throughout. Further, the TGI in [6] and in assay [8] was greater than 100 µM throughout.
In the case of `Cn1cc(-c2csc(-c3c[nH]c4ncccc34)n2)c2cc(Br)cnc21`, the GI50 in assay [1] was 10.9 µM; in assay [2] it was 2.35 µM; in assay [10] it was 13.7 µM; in [3] it was 1.97 µM; in assay [4], 4.86 µM; in [5], 2.91 µM. Also, the GI50 in assay [7] is greater than 100 µM; in [8], greater than 100 µM; in [9], 3.77 µM. Further, the TGI in [1], in assay [2], in assay [10], in assay [3], in assay [4] and in assay [5] was greater than 100 µM in each case. Also, the TGI in assay [7], in assay [8] and in assay [9] was greater than 100 µM each time.
For the compound `Cc1cc2c3ccccc3n(C)c2c2c1C(=O)c1ccccc1C2=O`, the TGI was greater than 100 µM in assay [1]; 30.5 µM in assay [3]; 49.2 µM in [4]; 54.1 µM in assay [5]; 51.4 µM in assay [6]; 81.3 µM in assay [9].
For the compound `OC1CN(OC/C=C/c2ccccc2)CC(O)C1O` (centres undefined), the TGI in assay [1], in assay [2], in assay [10], in [3], in [5] and in assay [6] was greater than 100 µM throughout. Also, the TGI in [7], in [8] and in [9] was greater than 100 µM in each case.
With `CCOC(=O)C1=C(Nc2ccccc2)OC/C1=N\NC(=O)Cc1ccccc1`, the TGI in [1], in assay [3], in assay [4], in assay [5], in assay [6] and in assay [7] was greater than 50 µM throughout. The TGI in [8] and in [9] was greater than 50 µM in each case.
In the case of `O=C(Nc1cccc(Cl)c1)Nc1cccc(Cl)c1`, the GI50 in [1] was 2.87 µM; in assay [3] it was greater than 100 µM; in [4], 2.04 µM; in [5], 2.92 µM; in assay [6] it was 1.99 µM; in assay [7], greater than 100 µM. In [9], the GI50 was greater than 100 µM. Also, the TGI in assay [1], in assay [3], in [4], in assay [5], in [6] and in [7] was greater than 100 µM throughout. In assay [9], this compound displayed a TGI greater than 100 µM.
Take `CCCCCCCCCCCCCCCCOC(=O)C(C(=O)OCCCCCCCCCCCCCCCC)[N+](C)(C)CCOC(C)=O`: the TGI in assay [1] is 57.5 µM; in assay [2], 34.9 µM; in assay [10], 46.1 µM; in assay [3] it was 42.1 µM; in assay [4], 23.3 µM; in [5], 32.6 µM. Besides, the TGI in [6] was determined as 32.4 µM; in assay [7], 35.1 µM; in assay [9] it was 26.5 µM.
